# Source: patent publication US10590140B2, “Tetrahydropyrimidodiazepine and dihydropyridodiazepine compounds for treating pain and pain related conditions” (ESTEVE PHARMACEUTICALS, S.A., priority 2016, dated 2020)
# Molecular target: human α2δ-1 subunit of Cav2.2 calcium channel (Homo sapiens (Human), UniProt P54289)
# Assay: Binding assay to human α2δ-1 subunit of Cav2.2 calcium channel ([3H]-Gabapentin)
# Conditions: binding to α2δ-1, [3H]-Gabapentin; read-out: Ki (nM) α2δ-1
# Procedure, shortened: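 Radioactivity on dried GF/C filters quantified by scintillation after filtration and three cold Tris-HCl (pH 7.4) washes. Incubation ran 60 min at 27° C with [3H]-gabapentin; 10 μM pregabalin gave nonspecific binding.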
# Sequence of human α2δ-1 subunit of Cav2.2 calcium channel (P54289 25-1103): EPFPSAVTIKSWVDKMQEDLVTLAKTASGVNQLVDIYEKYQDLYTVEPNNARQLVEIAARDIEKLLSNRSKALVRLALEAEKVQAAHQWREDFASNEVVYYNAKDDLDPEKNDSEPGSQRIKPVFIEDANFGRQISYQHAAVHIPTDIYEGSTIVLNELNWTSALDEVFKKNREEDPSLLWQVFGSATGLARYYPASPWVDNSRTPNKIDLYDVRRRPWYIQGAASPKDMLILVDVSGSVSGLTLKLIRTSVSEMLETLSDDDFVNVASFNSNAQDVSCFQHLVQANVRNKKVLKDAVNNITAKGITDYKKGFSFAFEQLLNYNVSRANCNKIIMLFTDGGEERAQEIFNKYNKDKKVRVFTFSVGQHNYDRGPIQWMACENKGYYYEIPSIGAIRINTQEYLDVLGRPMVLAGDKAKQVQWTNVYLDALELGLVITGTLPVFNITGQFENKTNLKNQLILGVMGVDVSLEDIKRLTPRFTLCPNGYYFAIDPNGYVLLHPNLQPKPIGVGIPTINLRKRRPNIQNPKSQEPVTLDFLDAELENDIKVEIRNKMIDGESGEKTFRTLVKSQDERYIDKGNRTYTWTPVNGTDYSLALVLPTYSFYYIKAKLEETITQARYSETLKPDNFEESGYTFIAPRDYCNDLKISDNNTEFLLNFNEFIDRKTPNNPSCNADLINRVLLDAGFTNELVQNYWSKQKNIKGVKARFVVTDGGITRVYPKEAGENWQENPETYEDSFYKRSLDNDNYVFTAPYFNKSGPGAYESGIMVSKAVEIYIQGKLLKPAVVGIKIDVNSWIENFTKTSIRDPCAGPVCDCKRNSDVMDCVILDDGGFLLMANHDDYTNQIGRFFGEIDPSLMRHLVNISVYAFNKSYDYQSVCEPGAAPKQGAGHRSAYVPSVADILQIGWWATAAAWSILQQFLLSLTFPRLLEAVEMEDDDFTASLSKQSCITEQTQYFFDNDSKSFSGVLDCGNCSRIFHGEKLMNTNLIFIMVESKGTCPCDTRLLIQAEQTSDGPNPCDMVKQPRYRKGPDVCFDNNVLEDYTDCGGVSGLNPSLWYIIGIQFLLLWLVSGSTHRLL
row,SMILES,Ki [nM]
1,"Cc1nnc(-c2cccc(N3CCN(C)c4nc(NCc5ccccc5)ncc4C3=O)c2)o1 [Example 102, 2-(benzylamino)-9-methyl-6-(3-(5-methyl-1,3,4-oxadiazol-2-yl)phenyl)-6,7,8,9-tetrahydro-5H-pyrimido[4,5-e][1,4]diazepin-5-one]",> 3000
2,"Cc1nnc(-c2cccc(N3CCN(C)c4nc(NC5CCCCC5)ncc4C3=O)c2)o1 [Example 103, 2-(cyclohexylamino)-9-methyl-6-(3-(5-methyl-1,3,4-oxadiazol-2-yl)phenyl)-6,7,8,9-tetrahydro-5H-pyrimido[4,5-e][1,4]diazepin-5-one]",> 3000
3,"Cc1nnc(-c2cccc(N3CCN(C)c4nc(N(C)Cc5ccccc5)ncc4C3=O)c2)o1 [Example 104, 2-(benzyl(methyl)amino)-9-methyl-6-(3-(5-methyl-1,3,4-oxadiazol-2-yl)phenyl)-6,7,8,9-tetrahydro-5H-pyrimido[4,5-e][1,4]diazepin-5-one]",> 3000
4,"Cc1nnc(-c2cccc(N3CCN(C)c4nc(NCCc5ccccc5)ncc4C3=O)c2)o1 [Example 105, 9-methyl-6-(3-(5-methyl-1,3,4-oxadiazol-2-yl)phenyl)-2-(phenethylamino)-6,7,8,9-tetrahydro-5H-pyrimido[4,5-e][1,4]diazepin-5-one]",> 3000
5,"Cc1nnc(-c2cccc(N3CCN(C)c4nc(N(C)Cc5ccccn5)ncc4C3=O)c2)o1 [Example 106, 9-methyl-2-(methyl (pyridin-2-ylmethyl)amino)-6-(3-(5-methyl-1,3,4-oxadiazol-2-yl)phenyl)-6,7,8,9-tetrahydro-5H-pyrimido[4,5-e][1,4]diazepin-5-one]",> 3000
6,"CCNc1ncc2c(n1)N(C)CCN(c1cccc(C#N)c1)C2=O [Example 110, 3-(2-(ethylamino)-9-methyl-5-oxo-5,7,8,9-tetrahydro-6H-pyrimido[4,5-e][1,4]diazepin-6-yl)benzonitrile]",> 3000
7,"CCNc1ncc2c(n1)N(C)CCN(c1cccc(O[Si](C)(C)C(C)(C)C)c1)C2=O [Example 111, 6-(3-((tert-butyldimethylsilyl)oxy)phenyl)-2-(ethylamino)-9-methyl-6,7,8,9-tetrahydro-5H-pyrimido[4,5-e][1,4]diazepin-5-one]",> 3000
8,"CCNc1ncc2c(n1)N(C)CCN(c1cccc(Br)c1)C2=O [Example 112, 6-(3-bromophenyl)-2-(ethylamino)-9-methyl-6,7,8,9-tetrahydro-5H-pyrimido[4,5-e][1,4]diazepin-5-one]",> 3000
9,"CCNc1ncc2c(n1)N(C)CCN(c1cccc(CCO)c1)C2=O [Example 113, 2-(ethylamino)-6-(3-(2-hydroxyethyl)phenyl)-9-methyl-6,7,8,9-tetrahydro-5H-pyrimido[4,5-e][1,4]diazepin-5-one]",> 3000
10,"CCNc1ncc2c(n1)N(C)CCN(c1ccc(OC)cc1)C2=O [Example 114, 2-(ethylamino)-6-(4-methoxyphenyl)-9-methyl-6,7,8,9-tetrahydro-5H-pyrimido[4,5-e][1,4]diazepin-5-one]",> 3000
11,CCNc1ncc2c(n1)N(C)CCN(c1ccc(O[Si](C)(C)C(C)(C)C)cc1)C2=O [Example 115],> 3000
12,"CCNc1ncc2c(n1)N(C)CCN(c1cccc(-n3cc(CN(C)C(=O)OC(C)(C)C)nn3)c1)C2=O [Example 116, tert-butyl ((1-(3-(2-(ethylamino)-9-methyl-5-oxo-5,7,8,9-tetrahydro-6H-pyrimido[4,5-e][1,4]diazepin-6-yl)phenyl)-1H-1,2,3-triazol-4-yl)methyl)(methyl) carbamate]",> 3000
13,"CCNc1ncc2c(n1)N(C)CCN(c1cccc(-n3cc(CNC(=O)OC(C)(C)C)nn3)c1)C2=O [Example 117, tert-butyl ((1-(3-(2-(ethylamino)-9-methyl-5-oxo-5,7,8,9-tetrahydro-6H-pyrimido[4,5-e][1,4]diazepin-6-yl)phenyl)-1H-1,2,3-triazol-4-yl)methyl)carbamate]",> 3000
14,"CCNc1ncc2c(n1)N(C)CCN(c1cccc(-n3cc(CN(Cc4ccccc4)C(=O)OC(C)(C)C)nn3)c1)C2=O [Example 118, tert-butyl benzyl((1-(3-(2-(ethylamino)-9-methyl-5-oxo-5,7,8,9-tetrahydro-6H-pyrimido[4,5-e][1,4]diazepin-6-yl)phenyl)-1H-1,2,3-triazol-4-yl)methyl)carbamate]",> 3000
15,"CCNc1ncc2c(n1)N(C)CCN(c1cccc(-n3cc(C(OCC)OCC)nn3)c1)C2=O [Example 119, 6-(3-(4-(diethoxymethyl)-1H-1,2,3-triazol-1-yl)phenyl)-2-(ethylamino)-9-methyl-6,7,8,9-tetrahydro-5H-pyrimido[4,5-e][1,4]diazepin-5-one]",> 3000
16,"CCNc1ncc2c(n1)N(C)CCN(c1cccc(-n3cc(CCN(C)C(=O)OC(C)(C)C)nn3)c1)C2=O [Example 120, tert-butyl (2-(1-(3-(2-(ethylamino)-9-methyl-5-oxo-5,7,8,9-tetrahydro-6H-pyrimido[4,5-e][1,4]diazepin-6-yl)phenyl)-1H-1,2,3-triazol-4-yl)ethyl)(methyl) carbamate]",> 3000
17,"CCNc1ncc2c(n1)N(C)CCN(c1cccc(Cn3cc(CN(C)C(=O)OC(C)(C)C)nn3)c1)C2=O [Example 121, tert-butyl ((1-(3-(2-(ethylamino)-9-methyl-5-oxo-5,7,8,9-tetrahydro-6H-pyrimido[4,5-e][1,4]diazepin-6-yl)benzyl)-1H-1,2,3-triazol-4-yl)methyl)(methyl) carbamate]",> 3000
18,"CCNc1ncc2c(n1)N(C)CCN(c1cccc(-n3cc(CN(C)C(=O)OC(C)(C)C)cn3)c1)C2=O [Example 122, tert-butyl ((1-(3-(2-(ethylamino)-9-methyl-5-oxo-5,7,8,9-tetrahydro-6H-pyrimido[4,5-e][1,4]diazepin-6-yl)phenyl)-1H-pyrazol-4-yl)methyl)(methyl) carbamate]",> 3000
19,"CCNc1ncc2c(n1)N(C)CCN(c1cccc(-n3cnc(CN(C)C(=O)OC(C)(C)C)c3)c1)C2=O [Example 123, tert-butyl ((1-(3-(2-(ethylamino)-9-methyl-5-oxo-5,7,8,9-tetrahydro-6H-pyrimido[4,5-e][1,4]diazepin-6-yl)phenyl)-1H-imidazol-4-yl)methyl)(methyl) carbamate]",> 3000
20,"CCNc1ncc2c(n1)N(C)CCN(c1cccc(-c3nnc(CN(C)C(=O)OC(C)(C)C)o3)c1)C2=O [Example 124, tert-butyl ((5-(3-(2-(ethylamino)-9-methyl-5-oxo-5,7,8,9-tetrahydro-6H-pyrimido[4,5-e][1,4]diazepin-6-yl)phenyl)-1,3,4-oxadiazol-2-yl)methyl)(methyl) carbamate]",> 3000

# Continued, values first:
row,Ki [nM],SMILES
1,> 3000,"CCNc1ncc2c(n1)N(C)CCN(c1cccc(CN(C)C(=O)OC(C)(C)C)c1)C2=O [Example 94, tert-butyl (3-(2-(ethylamino)-9-methyl-5-oxo-5,7,8,9-tetrahydro-6H-pyrimido[4,5-e][1,4]diazepin-6-yl)benzyl)(methyl) carbamate]"
2,> 3000,"CCNc1ncc2c(n1)N(C)CCN(c1cccc(OC3CCN(C(=O)OC(C)(C)C)C3)c1)C2=O (stereo not shown) [Example 95, tert-butyl 3-(3-(2-(ethylamino)-9-methyl-5-oxo-5,7,8,9-tetrahydro-6H-pyrimido[4,5-e][1,4]diazepin-6-yl)phenoxy)pyrrolidine-1-carboxylate]"
3,> 3000,"CCNc1ncc2c(n1)N(C)CCN(c1cccc(COC3(c4ccccc4)CCN(C(=O)OC(C)(C)C)CC3)c1)C2=O [Example 96, tert-butyl 4-((3-(2-(ethylamino)-9-methyl-5-oxo-5,7,8,9-tetrahydro-6H-pyrimido[4,5-e][1,4]diazepin-6-yl)benzyl)oxy)-4-phenylpiperidine-1-carboxylate]"
4,< 100,"CCNc1ncc2c(n1)N(C)CCN(c1cccc(-c3nnc(C)o3)c1)C2=O [Example 97, 2-(ethylamino)-9-methyl-6-(3-(5-methyl-1,3,4-oxadiazol-2-yl)phenyl)-6,7,8,9-tetrahydro-5H-pyrimido[4,5-e][1,4]diazepin-5-one]"
5,> 3000,"Cc1nnc(-c2cccc(N3CCN(C)c4nc(NCC(C)C)ncc4C3=O)c2)o1 [Example 98, 2-(isobutylamino)-9-methyl-6-(3-(5-methyl-1,3,4-oxadiazol-2-yl)phenyl)-6,7,8,9-tetrahydro-5H-pyrimido[4,5-e][1,4]diazepin-5-one]"
6,> 3000,"COCCNc1ncc2c(n1)N(C)CCN(c1cccc(-c3nnc(C)o3)c1)C2=O [Example 99, 2-((2-methoxyethyl)amino)-9-methyl-6-(3-(5-methyl-1,3,4-oxadiazol-2-yl)phenyl)-6,7,8,9-tetrahydro-5H-pyrimido[4,5-e][1,4]diazepin-5-one]"
7,100 to 500,"CNc1ncc2c(n1)N(C)CCN(c1cccc(-c3nnc(C)o3)c1)C2=O [Example 100, 9-methyl-6-(3-(5-methyl-1,3,4-oxadiazol-2-yl)phenyl)-2-(methylamino)-6,7,8,9-tetrahydro-5H-pyrimido[4,5-e][1,4]diazepin-5-one]"
8,500 to 3000,"Cc1nnc(-c2cccc(N3CCN(C)c4nc(N)ncc4C3=O)c2)o1 [Example 101, 2-amino-9-methyl-6-(3-(5-methyl-1,3,4-oxadiazol-2-yl)phenyl)-6,7,8,9-tetrahydro-5H-pyrimido[4,5-e][1,4]diazepin-5-one]"
9,100 to 500,"CCNc1ncc2c(n1)N(CC)CCN(c1cccc(-c3nnc(C)o3)c1)C2=O [Example 107, 9-ethyl-2-(ethylamino)-6-(3-(5-methyl-1,3,4-oxadiazol-2-yl)phenyl)-6,7,8,9-tetrahydro-5H-pyrimido[4,5-e][1,4]diazepin-5-one]"
10,100 to 500,"CCNc1ncc2c(n1)N(C)CCN(c1cccc(-c3noc(C)n3)c1)C2=O [Example 108, 2-(ethylamino)-9-methyl-6-(3-(5-methyl-1,2,4-oxadiazol-3-yl)phenyl)-6,7,8,9-tetrahydro-5H-pyrimido[4,5-e][1,4]diazepin-5-one]"
11,500 to 3000,"CCNc1ncc2c(n1)N(C)CCN(c1cccc(OC)c1)C2=O [Example 109, 2-(ethylamino)-6-(3-methoxyphenyl)-9-methyl-6,7,8,9-tetrahydro-5H-pyrimido[4,5-e][1,4]diazepin-5-one]"
